Assay results as given in US10519193B2, “Steroidal compound, composition containing the same and use thereof” (Shenzhen TargetRx, Inc., priority 2016, dated 2019).
pIC50: −log10 of the molar value.

What was measured:
[1] = test system: PSA protein secretion, LNcaP cells; test: Inhibition of cellular PSA protein secretion; format: cell-based; settings: Homo sapiens, 1 nM DHT, 48 hours, ELISA, read-out: Inhibition of PSA proteins, IC50
Method: Experimental steps: 1. The original culture medium was replaced with culture medium containing 10% Charcoal Stripped FBS, and cells were allowed to starve in culture flasks for 24 hours; 2. Cells were digested and counted, and LNcaP cells were seeded into 96-well plates at 10,000 cells/well and incubated overnight; 3. The DHT and compound were added to the existing medium at a set concentration, the final concentration of DHT was 1 nM, the initial concentration of the compound was 50000 nM, 5-fold dilution was carried out, 8 concentration gradients were obtained, and incubation was carried out for 48 hours; 4. Cell culture supernatants were collected and PSA protein levels were measured according to the ELISA kit instructions. IC50 was calculated using GraphPad Prism based on the inhibition rate at each concentration, and the results were shown in Table 2 below.

[2] = target: T1, Human CYP17 (Homo sapiens, UniProt P05093); test: CYP17 lyase assay; format: biochemical; set-up: made in house; host or cells: HEK293 cells (microsomes)
T1 sequence (P05093 1-508): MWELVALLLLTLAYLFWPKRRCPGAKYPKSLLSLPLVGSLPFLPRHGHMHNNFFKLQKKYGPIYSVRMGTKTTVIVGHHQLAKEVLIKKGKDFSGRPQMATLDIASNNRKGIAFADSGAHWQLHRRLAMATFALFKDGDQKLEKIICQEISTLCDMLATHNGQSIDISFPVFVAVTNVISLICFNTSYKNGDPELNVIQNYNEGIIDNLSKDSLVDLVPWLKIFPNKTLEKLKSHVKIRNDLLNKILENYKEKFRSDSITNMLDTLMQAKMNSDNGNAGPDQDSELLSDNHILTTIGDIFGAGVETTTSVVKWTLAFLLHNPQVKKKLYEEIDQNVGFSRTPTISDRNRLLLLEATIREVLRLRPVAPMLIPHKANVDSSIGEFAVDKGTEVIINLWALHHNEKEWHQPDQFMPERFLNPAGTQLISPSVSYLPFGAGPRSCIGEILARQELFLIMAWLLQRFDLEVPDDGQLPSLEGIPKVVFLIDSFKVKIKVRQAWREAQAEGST
Method: Human CYP17 was expressed in HEK293 cells and microsome were prepared, which was subsequently used as a source of enzyme for lyase assays. The reaction includes 200 nM [3H]-hydroxy pregnenolone (ARC), 200 nM 17-hydroxy pregnenolone (Sigma), 2 mM NADPH (Calbiochem), and CYP 17-HEK293 microsomes, which were incubated for 20 minutes at room temperature in the presence of DMSO or a test compound. Compounds were dissolved in DMSO and serially diluted. The reaction was stopped by the addition of 0.2N HCl and the product was captured using an anti-mouse YSi SPA Bead (GE) conjugated anti-DHEA monoclonal antibody (Abcam). The signal intensity determined by Packard Top Count was used to calculate the percent inhibition and IC50 values.

[3] = target: T1, Human CYP17; test: CYP17 hydroxylase assay; format: biochemical; set-up: made in house; host or cells: E. coli (membrane preparation)
Method: E. coli was transformed to express active human CYP17, and a membrane prepared from the transformed E. coli was used as a source of the enzyme. […] The reaction mixture was incubated at 37° C. for 120 minutes and 200 μL of 0.02 N HCl in acetonitrile was added to stop the reaction. The sample was then spun at […] and 200 μL of the supernatant was transferred to a clean tube for determination. The reaction product 17-alpha pregnenolone was measured by LC/MS.

[4] = Metabolic stability evaluation in human liver microsomes; format: in vitro ADME; settings: for clearance compared to the non-deuterated compound / half-life compared to the non-deuterated compound / half-life at 1 μM / microsomal CLint at 1 μM: human liver microsome; for clearance compared to the non-deuterated compound / half-life compared to the non-deuterated compound / half-life of the deuterated prodrug: in words; for half-life at 1 μM / microsomal CLint at 1 μM: human liver microsomes, pH 7.4, 1 μM compound, 0.5 mg/mL protein; for half-life of the deuterated prodrug: metabolized abiraterone of the prodrug, liver microsomes, versus abiraterone acetate
Method: Experiments in microsomes: Human liver microsomes: 0.5 mg/mL, Xenotech; Coenzyme (NADPH/NADH): 1 mM, Sigma Life Science; Magnesium chloride: 5 mM, 100 mM phosphate buffer (pH 7.4).
Preparation of stock solution: Powder of the example compound was accurately weighed and dissolved in DMSO to 5 mM.
Preparation of phosphate buffer (100 mM, pH7.4): A pre-formulated 0.5M potassium dihydrogen phosphate (150 mL) was mixed with 0.5M dibasic potassium phosphate (700 mL). The pH of the mixture was adjusted to 7.4 with 0.5M dibasic potassium phosphate solution. The mixture was diluted 5-fold with ultrapure water before use, and magnesium chloride was added to obtain a phosphate buffer (100 mM) containing 100 mM potassium phosphate, 3.3 mM magnesium chloride, pH 7.4.
A NADPH regeneration system solution (containing 6.5 mM NADP, 16.5 mM G-6-P, 3 U/mL G-6-P D, 3.3 mM magnesium chloride) was prepared and placed on wet ice prior to use.
Preparation of stop solution: acetonitrile solution containing 50 ng/mL propranolol hydrochloride and 200 ng/mL tolbutamide (internal standard). 25057.5 μL of phosphate buffer (pH 7.4) was taken into a 50 mL centrifuge tube, to which 812.5 μL human liver microsomes were added, and mixed to obtain a liver microsome dilution solution with a protein concentration of 0.625 mg/mL. 25057.5 μL of phosphate buffer (pH 7.4) was taken into a 50 mL centrifuge tube, to which 812.5 μL SD rat liver microsomes were added, and mixed to obtain a liver microsome dilution solution with a protein concentration of 0.625 mg/mL.
Incubation of the samples: The stock solution of the respective compound was respectively diluted to 0.25 mM with an aqueous solution containing 70% acetonitrile, and used as a working solution, ready for use. 398 μL of the dilution solution of human liver microsomes or rat liver microsome were added to a 96-well incubation plate (N=2), respectively, and 2 μL of 0.25 mM working solution was added and mixed.
Metabolic stability assay: 300 μL of pre-chilled stop solution was added to each well of a 96-well deep well plate and placed on ice as a stop plate. The 96 well incubation plate and NADPH regeneration system were placed in a 37° C. water bath box, shaken at 100 rpm and pre-incubated for 5 min. 80 μL of incubation solution was taken out from each well of the incubation plate and added to the stop plate, mixed, and replenished with 20 μL of NADPH regeneration system solution as a 0-min sample. 80 μL of NADPH regeneration system solution was added to each well of the incubation plate to start the reaction and start counting. […] Separately, 100 μL of the reaction solution was taken at 10, 30, and 90 min reaction, respectively, added to a stop plate, and vortexed for 3 minutes to terminate the reaction. The stop plate was centrifuged at 5000×g at 4° C. for 4 min. 100 μL of the supernatant was added to a 96-well plate to which 100 μL of distilled water was previously added, mixed, and analyzed by LC-MS/MS.
Data analysis: The peak areas of the corresponding compound and internal standard were detected by LC-MS/MS system, and the ratio of the peak area of the compound to the internal standard was calculated.

[5] = Pharmacokinetic evaluation in rats; format: in vivo; settings: male, Sprague-Dawley, plasma, 5 mg/kg; rat, PO
Method: 8 male Sprague-Dawley rats (7-8 weeks old, and weighing approximately 210 g) were divided into two groups with 4 rats in each group, a single oral dose of 5 mg/kg given to the two groups were (a) control group: (3β)-17-(3)-pyridyl)androst-5,16-dienol and (b) test group: Examples 1-13, and pharmacokinetic differences between the two groups were compared.
The rats were raised on standard food and water. Fasting was started 16 hours before the test. The drug was dissolved with PEG400 and dimethyl sulfoxide. The blood samples were collected from eyelids at the time points of 0.083 hours, 0.25 hours, 0.5 hours, […], 2 hours, 4 hours, 6 hours, 8 hours, 12 hours, and 24 hours after administration.
Rats were briefly anesthetized after inhalation of diethyl ether and 300 μL of blood sample was collected from the eyelids into test tubes. There was 30 μL of 1% heparin salt solution in the test tube. Tubes were dried at 60° C. overnight before use. After the blood sample was collected at a later time point, the rats were sacrificed after ether anesthesia.
Immediately after the collection of the blood sample, the test tube was gently inverted at least 5 times to ensure sufficient mixing and then placed on ice. The blood sample was centrifuged at 5000 rpm at 4° C. for 5 minutes to separate the plasma from the red blood cells. 100 μL of plasma was aspirated into a clean plastic centrifuge tube with a pipette, marking with the name of the compound and time point. Plasma was stored at −80° C. prior to analysis. The concentration of the compound of the present disclosure in plasma was determined by LC-MS/MS. The pharmacokinetic parameters were calculated based on the blood concentration of each animal at different time points.

[6] = Pharmacokinetic evaluation in rats; format: in vivo; settings: male, Sprague-Dawley, plasma; rat, IV
[7] = test system: castration-resistant prostate cancer; settings: patients, cited from earlier work
[8] = CYP17-HEK293 microsomes, 20 minutes at room temperature, read-out: CYP17 lyase IC50
[9] = hCYP17 E. coli membrane, 25 μM pregnenolone, 37° C. 120 minutes, read-out: CYP17 hydroxylase IC50
[10] = abiraterone acetate plus prednisone

[2H]C1=C(c2cccnc2)[C@@]2(C)CCC3C(CCC4=CC(=O)CC[C@@]43C)C2C1 (stereo partly drawn) [Example 13, (3β)-17-(3-pyridyl)-16-d-androst-4,16-dien-3-one]
pIC50 [1]: > 8.00 | pIC50 [2, 8]: > 8.00 | pIC50 [3, 9]: > 7.70

[2H]c1ccc(C2=CCC3C4CC=C5C[C@@H](O)CC[C@]5(C)C4CC[C@]23C)cn1 (stereo partly drawn) [Example 1, (3β)-17-(3-pyridyl-6-d)androst-5,16-dienol]
clearance compared to the non-deuterated compound [4]: reduced | half-life compared to the non-deuterated compound [4]: prolonged | half-life at 1 μM [4]: > 2.42 h | microsomal CLint at 1 μM [4]: < 9.6 µL/min/mg | pIC50 [2, 8]: > 8.00 | pIC50 [3, 9]: > 7.70

[2H]c1ccc(C2=CCC3C4CC=C5C[C@@H](OC(C)=O)CC[C@]5(C)C4CC[C@]23C)cn1 (stereo partly drawn) [Example 5, (3β)-17-(3-pyridyl-6-d)androst-5,16-dienyl Acetate]
AUC(0-inf) [5]: 2440 ng·h/mL | AUC(0-t) [5]: 2420 ng·h/mL | Cmax [5]: 813 ng/mL | Tmax [5]: 1.67 h | AUC(0-inf) [6]: 274 ng·h/mL | AUC(0-t) [6]: 224 ng·h/mL | Cmax [6]: 24.1 ng/mL | Tmax [6]: 3 h

[2H]c1cncc(C2=CCC3C4CC=C5C[C@@H](OC(=O)C([2H])([2H])[2H])CC[C@]5(C)C4CC[C@]23C)c1 (stereo partly drawn) [Example 7, (3β)-17-(3-pyridyl-5-d)androst-5,16-dienyl d3-acetate]
half-life of the deuterated prodrug [4]: significantly prolonged

CC(=O)O[C@H]1CC[C@@]2(C)C(=CC[C@@H]3[C@@H]2CC[C@]2(C)C(c4cccnc4)=CC[C@@H]32)C1 [Abiraterone acetate, reference compound]
AUC(0-inf) [5]: 1320 ng·h/mL | AUC(0-t) [5]: 1290 ng·h/mL | Cmax [5]: 506 ng/mL | Tmax [5]: 1.33 h | AUC(0-inf) [6]: 192 ng·h/mL | AUC(0-t) [6]: 110 ng·h/mL | Cmax [6]: 10.6 ng/mL | Tmax [6]: 2 h | risk of death reduced ([7]; abiraterone acetate plus prednisone vs placebo plus prednisone): 35% | Median survival [7, 10]: 14.8 months | Median survival longer than placebo plus prednisone [7, 10]: 3.9 months

[2H]c1cncc(C2=CCC3C4CC=C5C[C@@H](OC(C)=O)CC[C@]5(C)C4CC[C@]23C)c1 (stereo partly drawn) [Example 3, (3β)-17-(3-pyridyl-5-d)androst-5,16-dienyl Acetate]
half-life of the deuterated prodrug [4]: significantly prolonged

[2H]C([2H])([2H])C(=O)O[C@H]1CC[C@@]2(C)C(=CCC3C2CC[C@]2(C)C(c4cccnc4)=CCC32)C1 (stereo partly drawn) [Example 4, (3β)-17-(3-pyridyl)androst-5,16-dienyl d3-acetate]
half-life of the deuterated prodrug [4]: significantly prolonged

[2H]c1cncc(C2=CCC3C4CC=C5C[C@@H](O)CC[C@]5(C)C4CC[C@]23C)c1 (stereo partly drawn) [Example 2, (3β)-17-(3-pyridyl-5-d)androst-5,16-dienol]
clearance compared to the non-deuterated compound [4]: reduced | half-life compared to the non-deuterated compound [4]: prolonged | half-life at 1 μM [4]: 1.19 h | microsomal CLint at 1 μM [4]: 19.5 µL/min/mg | pIC50 [2, 8]: > 8.00 | pIC50 [3, 9]: > 7.70

C[C@]12CC[C@H](O)CC1=CC[C@@H]1[C@@H]2CC[C@]2(C)C(c3cccnc3)=CC[C@@H]12 [Abiraterone, (3β)-17-(3-pyridinyl)androst-5,16-dienol, reference compound]
half-life at 1 μM [4]: 0.667 h | microsomal CLint at 1 μM [4]: 34.7 µL/min/mg | pIC50 [2, 8]: > 8.00

[2H]C1=C(c2cccnc2)[C@@]2(C)CCC3C(CC=C4C[C@@H](OC(=O)C([2H])([2H])[2H])CC[C@@]43C)C2C1 (stereo partly drawn) [Example 9, (3β)-17-(3-pyridyl)androst-5,16-dienyl-16-d d3-acetate]
AUC(0-inf) [5]: 2550 ng·h/mL | AUC(0-t) [5]: 2480 ng·h/mL | Cmax [5]: 549 ng/mL | Tmax [5]: 1.67 h | half-life of the deuterated prodrug [4]: significantly prolonged | Cmax [6]: 43.6 ng/mL | Tmax [6]: 17.3 h

[2H]C1=C(c2cccnc2)[C@@]2(C)CCC3C(CC=C4C[C@@H](O)CC[C@@]43C)C2C1 (stereo partly drawn) [Example 8, (3β)-17-(3-pyridyl)androst-5,16-dienol-16-d]
clearance compared to the non-deuterated compound [4]: reduced | half-life compared to the non-deuterated compound [4]: prolonged | half-life at 1 μM [4]: 0.855 h | microsomal CLint at 1 μM [4]: 24.3 µL/min/mg | pIC50 [2]: > 8.00 | pIC50 [3]: > 7.70
